From patent publication US10555915B2, “Methods for treating acute acoustic trauma” (Hough Ear Institute, priority 2009, dated 2020) come the findings set out here.

Assay [1] concerns AAT-induced hearing loss. The assay can be described thus: Chinchilla AAT model, oral treatment, ABR threshold shift. The format is in vivo, chinchilla laniger.
Description: The treatments were administered a total of five times including one dose 4 hours post-AAT, and two doses daily on days 1 and 2 post AAT.
Hearing was assessed as auditory brainstem response (ABR) which was measured at between 1 and 3 days prior to AAT and at one or more of the following time points post AAT: 1 hr, 8 hr, 24 hr 7 day and 21 days. The 21 day test point was considered the permanent threshold shift (PTS). ABR recordings were performed under light ketamine (20 mg/kg) and xylazine (1 mg/kg) anesthesia. Small supplemental doses (⅓ of initial dose) were given if needed. ABR thresholds were recorded from subcutaneous needle electrodes placed under the skin of the head. […] Auditory stimuli was generated using a computer-aided system (Intelligent Hearing Systems, Miami, Fla.) coupled to high frequency transducers. Acoustic stimuli were tone pips (5 ms duration and 1 ms Blackman rise and fall) at frequencies of 0.5, 1, 2, 4, 6, 8, and 16 kHz. All acoustic stimuli were transduced through the computer-controlled attenuator to a 3A insert earphone [Etyniotic Research (ER)-3A, Etymotic Research Inc., Elk Grove Village, Ill.] placed about 5 mm from the tympanic membrane. The insert earphone was calibrated with a coupler mounted to the sound level meter approximating its placement. The electrical responses obtained from the electrodes were amplified (×100,000), filtered (100-3,000 Hz), and digitized through an A/D converter on a signal processing board. They were averaged at a sample rate of 1024 for each level.
Hearing thresholds were tested in 10 dB descending steps until near the threshold, and then 5 dB ascending steps were taken to determine the threshold. Threshold was defined as the midpoint between the lowest level of a clear response and the next level where no response was observed. The threshold shift refers to the difference in threshold prior to and following AAT. The investigators performing the ABR measurements were blinded as to the identity of the animal groups.
Statistically significant differences in threshold shifts were tested via ANOVA (SPSS 14.0 for Windows).
Assay [2] deals with AAT-induced hearing loss. Description: Chinchilla AAT model, NAC intraperitoneal, ABR threshold shift. It is filed as in vivo. Conditions: FIG. 3; for threshold shift at 21 days following AAT exposure: p<0.05. On the procedure:
For the experiments and examples described herein, the following methods were generally employed except for those described with respect to FIG. 5. Female adult chinchilla laniger (Mouton Chinchilla Ranch, Rochester, Minn.) weighing 500-850 grams were placed, two at a time, in two small wire restraint cages on a wooden plate where the AAT was induced by a 105 dB SPL octave-band noise centered at 4 kHz for 6 hours in a sound isolation booth [Industrial Acoustics Company (IAC), New York, N.Y.]. The noise was digitally generated by a Tucker Davis Technologies (TDT, Alachua, Fla.) device and passed through a real time attenuator (TDT, RP2), filtered, amplified with a preamplifier (QSC audio power, Costa Mesa, Calif.), and transduced with a high frequency acoustic driver and an acoustic speaker (JBL 2350, Northridge, Calif.) suspended from the ceiling of the sound booth which is placed directly above the wire cages. Before noise exposure, the sound spectrum output of the system was calibrated with a sound level meter centered at an octave bandwidth of 4 kHz. A condenser microphone (B&K 2804, Norcross, Ga.) coupled to the preamplifier was placed between the two wire cages at the level of the animals' heads to monitor the noise level. During noise exposure, the noise level was continually and visually monitored using the PULSE software system [B&K Sound & Vibration Measurement (version 10.0), Norcross, Ga.] including FFT Analysis Type 7770 and CPB Analysis 7771. […]
Hearing was assessed as auditory brainstem response (ABR) which was measured at between 1 and 3 days prior to AAT and at one or more of the following time points post AAT: 1 hr, 8 hr, 24 hr 7 day and 21 days. […] ABR thresholds were recorded from subcutaneous needle electrodes placed under the skin of the head. […]

`CC(C)(C)[N+]([O-])=Cc1ccc(S(=O)(=O)O)cc1S(=O)(=O)O` [HPN-07, 2,4-disulfonyl α-phenyl tertiary butyl nitrone]: in assay [1] (300 mg/kg oral, compared to control, FIG. 2), the “average threshold shift at each individual frequency (0.5, 1, 2, 4, 6 and 8 kHz)” value is “most pronounced effect of HPN-07 occurred at 0.5, 1, 6 and 8 kHz, while the effect was less prominent at 2 and 4 kHz”. The “average threshold shift across all frequencies tested” value in assay [1] (21 days post AAT, 300 mg/kg oral, five doses from 4 hours post-AAT, compared to control animals, FIG. 1) is “significantly decreased average threshold shift”. Moreover, the “average threshold shift for each individual frequency tested” value in assay [1] (21 days post AAT, oral, 300 mg/kg HPN-07 alone or + 300 mg/kg NAC, vs control (10% sucrose), FIG. 4A) is “significant reduction in threshold shift at 0.5, 1, 4 and 6 kHz”. Besides, the “combined average threshold shift from 2 kHz to 8 kHz” value in assay [1] (21 days post AAT, oral, vs control, FIG. 4B) was “overall significant reduction in threshold shift”. Further, in assay [1] (expected in view of ABR data, compared to the control group), the “outer hair cell loss” value was “statistically significant reduction in outer hair cell loss”. In assay [1] (oral administration to chinchillas exposed to AAT, summary statement), the “protection from hearing loss due to AAT” value is “significantly protected them from hearing loss”.
Consider `CC(=O)N[C@@H](CS)C(=O)O` [NAC, N-acetylcysteine], for which the “threshold shift at 21 days following AAT exposure” value in assay [2] (100 mg/kg NAC i.p.) and in assay [2] (200 mg/kg NAC i.p.) was “significant decrease in threshold shift” throughout. Also, in assay [2] (NAC i.p. 4 hours post AAT), the “threshold shift soon after treatment” value was “mild effect on threshold shift”.
